From patent publication US12637719B2, “Panel of ER regulated genes for use in monitoring endocrine therapy in breast cancer” (Sanofi, priority 2020, dated 2026)
“Also recorded” adds a separate entry of the source.

Legend:
[1] = system: ERα transcriptional activity in HCC1428-LTED cells; assay: ER activity score (GSVA on 87-gene ER signature, RNA-seq) in HCC1428-LTED cells; assay type: cell-based; conditions: for ER activity score / ERα transcriptional activity (GSVA on ER signature): 300 nM (high) or 30 nM (low), 24 hours, absence of exogenous estrogen, FIG. 1B
Experimental: The term “ER activity score,” as used herein, refers to a score obtained by using a computational method such as GSVA (Hanzelmann et al., GSVA: gene set variation analysis for microarray and RNA-seq data, in BMC Bioinformatics, 2013; 14:7, incorporated herein by reference in its entirety for its description of calculating scores using the GSVA method) on a gene expression data set obtained from a biological sample. An E2-induced score and an E2-suppressed score are calculated individually. […] The ER activity score is computed as follows: ER Activity Score=ER-induced score−E2-suppressed score.
(§1) An RNA-seq library of 96 SERD RNA samples was prepared using a kit from NuGen Ovation® Universal RNA-Seq System Method (Illumina® Platforms) conforming to the manufacturer's protocol. The 50 bp rapid single-read flow cell was used to sequence the library on the Illumina HiSeq 2500 in the rapid mode. […] TPM was calculated as calculated measured as an expression unit and then quantile-normalized and log 2-transformed. […] ER-regulated genes were identified using two comparisons. First, genes were identified that were modulated by one or more SERM or SERD compounds in Table 1 and modulated in the opposite direction by estradiol ([log 2 FC]>2 and FDR<0.05 vs. DMSO control). To identify genes that are differentially expressed between SERD compound treatment and dimethyl sulfoxide (DMSO; control) treatment groups, a two-factor (treatment and dose) analysis of variance (ANOVA) model was used at respective dose and time points. The treatment factor was fixed, with seven levels: six SERD compounds and the DMSO control. The dose factor was also fixed, with two levels: low and high. All samples were treated at 24h. Post hoc contrast analyses were performed at each dose and time level, between each SERD compound treatment and the DMSO control. […] This analysis was performed using Array Studio (Qiagen). The panel of 1022 genes identified as differentially expressed in at least one compound-versus-DMSO comparison were used for hierarchical clustering of compound treatment data normalized to DMSO control at respective dose and time points. Complete-linkage clustering was performed based on Pearson correlation coefficients. Expression profile similarity between compounds was assessed by Pearson correlation on the differentially expressed genes.
(§2) To evaluate the ER modulation by amcenestrant and other SERDs, we treated HCC1428-LTED (long term estrogen deprived) breast cancer cell lines with SERD compounds at either 300 nM (high) or 30 nM (low) in 24 hours. To unmask the ER-intrinsic activity, we then evaluated gene expression after compound treatment in HCC1428-LTED cells, which is a cell line that is hormone-deprived. Changes in global mRNA expression were assessed 24 hours post treatment.
(§3) To assess the relative ER modulating activity of the compounds, a panel of ER regulated genes (87 genes, Table 3) was developed by transcriptional profiling of multiple cell lines to identify genes that were modulated by estradiol and then blocked by SERM and SERD. This panel of ER regulated genes can be used to measure ER modulation by SERMs and SERDs. An ER Activity Score was then assessed using gene set variation analysis (GSVA) on the ER Signature (BMC Bioinformatics. 2013; 14:7).

HCC1428-LTED cells = assay: Global mRNA expression profile similarity between SERDs (1022 differentially expressed genes, Pearson correlation); assay type: cell-based; conditions: 24 hours post treatment, 1022 transcripts, FIG. 1A, FIG. 3
Experimental: as §1, with “The panel of 1022 genes identified as differentially expressed in at least one compound-versus-DMSO comparison were used for hierarchical clustering of compound treatment data normalized to DMSO control at respective dose and time points. Complete-linkage clustering was performed based on Pearson correlation coefficients.” left out
as §2

[2] = system: ERα target genes CXCL12 and BCAS1; assay: RT-qPCR of ERα target genes CXCL12 and Bcas1 in HCC1428-LTED cells; assay type: cell-based; conditions: for expression of CXCL12 by RT-qPCR: FIG. 1C; for expression of Bcas1 by RT-qPCR: FIG. 1D
Experimental: RNA was extracted using the RNeasy kit (Qiagen) per the manufacturers instruction, quantified by NanoDrop 8000 (ThermoScientific) and reverse-transcribed with cDNA archive kit (Applied Biosystems). Taqman gene expression assays (Applied Biosystems) were used to quantify PGR (Hs00172183_m1), Bcas 1 (Hs00952822_m1), CXCL12 (Hs03676656_mH), BLNK1(Hs00929914_m1), IL20 (Hs00218888_m1) and the house-keeping genes PGK (Hs00391480_m1) and GAPDH (Hs99999905 ml) The relative quantities were determined using ΔΔ threshold cycle (ΔΔCt), according to the manufacturer's instructions (Applied Biosystems).
as §2
Findings were confirmed by measuring the expression of two well-validated ER target genes, CXCL12 and BCAS1, by RT-qPCR. Gene expression analysis provided further confirmation of the differential response of these molecules on well-validated ERα target genes (Elife. 2016; 5, Endocr Relat Cancer. 2015; 22(5):713-24).

[3] = system: ERα signaling in HCI013 PDX tumor model; assay: ER activity score (GSVA, 87-gene signature) in HCI013 PDX tumor model; assay type: in vivo, human; conditions: 8 h after last administration; SAR439859 100 mg/kg QD, GDC0810 100 mg/kg QD; FIG. 4B
Experimental: FIGS. 4A-B. Evaluation of target gene modulation in ERα ligands in an endocrine therapy-resistant tumor model. […] Data represent mean and standard deviation for 3 replicates for CXCL12 gene expression. An ER Signature of 87 genes was that were modulated by estradiol and then blocked by SERM and SERD compounds was used to calculate the ER Activity Score and was assessed using gene set variation analysis (GSVA). Data represents the mean and deviation from the mean for each of the described treatments.
as §3
The ERα transcriptional activity was analyzed in the HCI013 model using the panel of genes corresponding to the ER gene signature derived from the in vitro cell line analysis as previously described.

[4] = system: ERα target genes PGR and CXCL12 in HCI013 tumors; assay: RT-qPCR of PGR and CXCL12 in HCI013 PDX tumors; assay type: in vivo, human
Experimental: FIG. 2. […] For FIG. 2 *P<0.05; denotes significance compared to vehicle treated group at end of study using unpaired t test. FIGS. 4A-B. Evaluation of target gene modulation in ERα ligands in an endocrine therapy-resistant tumor model. […] Data represent mean and standard deviation for 3 replicates for CXCL12 gene expression. An ER Signature of 87 genes was that were modulated by estradiol and then blocked by SERM and SERD compounds was used to calculate the ER Activity Score and was assessed using gene set variation analysis (GSVA). Data represents the mean and deviation from the mean for each of the described treatments. RNA was extracted using the RNeasy kit (Qiagen) per the manufacturers instruction, quantified by NanoDrop 8000 (ThermoScientific) and reverse-transcribed with cDNA archive kit (Applied Biosystems). Taqman gene expression assays (Applied Biosystems) were used to quantify PGR (Hs00172183_m1), Bcas 1 (Hs00952822_m1), CXCL12 (Hs03676656_mH), BLNK1(Hs00929914_m1), IL20 (Hs00218888_m1) and the house-keeping genes PGK (Hs00391480_m1) and GAPDH (Hs99999905 ml) The relative quantities were determined using ΔΔ threshold cycle (ΔΔCt), according to the manufacturer's instructions (Applied Biosystems).

Ki67 = assay: IHC Ki67 protein expression (percent positive tumor cells) in paired tumor biopsies, Phase 1/2 study; assay type: in vivo, human; conditions: screening to Cycle 2, Day 28; 400 mg PO QD; n=7; range −30% to +30%; FIG. 6C
Experimental: Staining was evaluated in tumor cells only. For ER and PgR expression, H-scores were calculated.

ER pathway = assay: ER activation score by GSVA (RNA-seq) in paired tumor biopsies, Phase 1/2 study; assay type: in vivo, human

Compound: C[C@@H]1Cc2c([nH]c3ccccc23)[C@@H](c2c(F)cc(/C=C/C(=O)O)cc2F)N1CC(C)(C)F [AZD9496]
- ER activity score / ERα transcriptional activity (GSVA on ER signature) [1]: only partially reduced; also recorded: only partially inhibited
- correlation of induced expression profile to that of fulvestrant (HCC1428-LTED cells): only weakly correlated
- expression of CXCL12 by RT-qPCR [2]: failed to elicit any significant change
- expression of Bcas1 by RT-qPCR [2]: failed to elicit any significant change

Compound: C[C@]12CC[C@@H]3c4ccc(O)cc4C[C@@H](CCCCCCCCC[S+]([O-])CCCC(F)(F)C(F)(F)F)[C@H]3[C@@H]1CC[C@@H]2O (stereo partly drawn) [Fulvestrant]
- ER activity score / ERα transcriptional activity (GSVA on ER signature) [1]: deep inhibition
- ER activity score / ERα transcriptional activity (GSVA on ER signature) ([1]; listed as fulvestrant): strongly reduced
- modulation of ERα intrinsic activity in the absence of E2 (inverse agonist activity) [1]: profound modulation

Compound: CC/C(=C(/c1ccc(/C=C/C(=O)O)cc1)c1ccc2[nH]ncc2c1)c1ccc(F)cc1Cl [GDC-0810]
- ER activity score / ERα transcriptional activity (GSVA on ER signature) [1]: only partially reduced; also recorded: only partially inhibited
- correlation of induced expression profile to that of fulvestrant (HCC1428-LTED cells): only weakly correlated
- expression of CXCL12 by RT-qPCR [2]: failed to elicit any significant change
- expression of Bcas1 by RT-qPCR [2]: failed to elicit any significant change
- ERα transcriptional activity (ER activity score) in HCI013 model [3]: suppressive activity

Compound: O=C(O)c1ccc2c(c1)CCCC(c1ccc(Cl)cc1Cl)=C2c1ccc(O[C@H]2CCN(CCCF)C2)cc1 [SAR439859, 6-(2,4-dichlorophenyl)-5-[4-[(3S)-1-(3-fluoropropyl)pyrrolidin-3-yl]oxyphenyl]-8,9-dihydro-7H-benzo[7]annulene-2-carboxylic acid]
- ER activity score / ERα transcriptional activity (GSVA on ER signature) [1]: strongly reduced; also recorded: deep inhibition
- modulation of ERα intrinsic activity in the absence of E2 (inverse agonist activity) [1]: profound modulation
- correlation of induced expression profile to that of fulvestrant (HCC1428-LTED cells): closely correlated
- expression of CXCL12 by RT-qPCR [2]: inhibited expression
- expression of Bcas1 by RT-qPCR [2]: induced expression
- CXCL12 gene expression in HCI013 tumors (RT-qPCR) ([4]; 8 h after last administration, SAR439859 100 mg/kg QD compared to fulvestrant 200 mg/kg Q2W or GDC0810 100 mg/kg QD, FIG. 4A): stronger inhibition
- PGR gene expression in HCI013 tumors (RT-qPCR) ([4]; 8 hours after last administration, SAR439859 100 mg/kg compared to fulvestrant 200 mg/kg or GDC0810 100 mg/kg, FIG. 2): stronger inhibition
- ERα transcriptional activity (ER activity score) in HCI013 model [3]: more marked ERα suppression
- median change from screening in percentage of Ki67 positive cells (Ki67): −8%
- ER activation score by GSVA, median change from screening (ER pathway; all patients with paired biopsies, n=5, range −1.1 to +0.4, FIG. 6D): −0.4
- ER activation score by GSVA, median change from screening, patients who showed clinical benefit (ER pathway; patients with clinical benefit, n=4, range −1.1 to 0): −0.6
- ER activation score by GSVA, change from screening, patient with no clinical benefit (ER pathway; the one patient with no clinical benefit): +0.4
